From ChEMBL document CHEMBL3046882, “Synthesis and antibacterial activity against ralstonia solanacearum for novel hydrazone derivatives containing a pyridine moiety” (2012)

How the values were obtained:
Ralstonia solanacearum [1] = test: Antibacterial activity against Ralstonia solanacearum assessed as growth inhibition at […] after 48 hrs by turbidimeter test; type: functional; parameters: dose or concentration left out as unconfirmed; conditions: for inhibition of growth: read-out: GI
Ralstonia solanacearum [2] = test: Antibacterial activity against Ralstonia solanacearum assessed as growth inhibition at […] after 48 hrs by turbidimeter test; type: functional; parameters: dose or concentration left out as unconfirmed; conditions: for inhibition of growth: read-out: GI

| Molecule | inhibition of growth (Ralstonia solanacearum [1]) | inhibition of growth (Ralstonia solanacearum [2]) | growth inhibition (GI) (Ralstonia solanacearum [1]) | growth inhibition (GI) (Ralstonia solanacearum [2]) |
| --- | --- | --- | --- | --- |
| Cc1cc(Cl)cc(C(=O)N/N=C\c2cccc(C(F)(F)F)c2)c1NC(=O)c1cccnc1Cl | 33.3% | 80.9% |  |  |
| Cc1cc(Cl)cc(C(=O)N/N=C\c2ccc(F)cc2)c1NC(=O)c1cccnc1Cl | 1.1% | 5% |  |  |
| CC/C=N\NC(=O)c1cc(Cl)cc(C)c1NC(=O)c1cccnc1Cl | 0% | 5% |  |  |
| COc1ccc(OC)c(/C=N\NC(=O)c2cc(Cl)cc(C)c2NC(=O)c2cccnc2Cl)c1 | 1.9% | 25.2% |  |  |
| Cc1cc(Cl)cc(C(=O)N/N=C\c2ccc(Cl)c(Cl)c2)c1NC(=O)c1cccnc1Cl | 12.4% | 35% |  |  |
| COc1ccc(/C=N\NC(=O)c2cc(Cl)cc(C)c2NC(=O)c2cccnc2Cl)c(OC)c1 | 0% | 36.1% |  |  |
| COPPER HYDROXIDE |  |  | 100% | 100% |
| Cc1cc(Cl)cc(C(=O)N/N=C\c2ccccc2Cl)c1NC(=O)c1cccnc1Cl | 0% | 6% |  |  |
| Cc1cc(Cl)cc(C(=O)N/N=C\c2c(Cl)cccc2Cl)c1NC(=O)c1cccnc1Cl | 15.2% | 18.2% |  |  |
| Cc1cc(Cl)cc(C(=O)N/N=C\N(C)C)c1NC(=O)c1cccnc1Cl | 57.1% | 100% |  |  |
| Cc1cc(Cl)cc(C(=O)N/N=C\c2ccc(C(C)(C)C)cc2)c1NC(=O)c1cccnc1Cl | 18.2% | 39% |  |  |
| COc1cccc(/C=N\NC(=O)c2cc(Cl)cc(C)c2NC(=O)c2cccnc2Cl)c1OC | 0% | 40.3% |  |  |
